Test results from US9549886B2, “Personal care formulations containing alkyl ketal esters and methods of manufacture” (SEGETIS, INC., priority 2010, dated 2017).
“And” between values parts separate entries of the source, which are not always exact repeats. Identical values can stand only once.

Legend:
[1] = Solubility of active agents in neat alkyl ketal esters (dissolution, storage at room temperature); conditions: for % solids dissolved in Et-LGK with heat, no precipitation / % solids in Et-LGK that did not (completely) dissolve or precipitated at room temperature / % solids dissolved in Et-LGK at room temperature, no precipitation: solvent Et-LGK; for % solids dissolved in Et-LGK with heat, no precipitation: dissolved at 35-80° C.; for % solids dissolved in Et-LGK with heat, no precipitation / % solids dissolved in Et-LGK at room temperature, no precipitation: still soluble after storage at room temperature (24 hours to 5 days) where stated; for % solids in Et-LGK that did not (completely) dissolve or precipitated at room temperature: partially dissolved or precipitated on room temperature storage; for solubility in many alkyl ketal esters: such as ethyl-LGK and ethyl-LPK; for % solids dissolved in Bu-LGK at room temperature, no precipitation: still soluble after 24 hours / 1 day at room temperature; for % solids dissolved in Et-LPK at room temperature, no precipitation: still soluble after 24 hours / 1 day at room temperature where stated; for % solids dissolved in Et-LPK with heat, no precipitation: dissolved at 50-80° C. or with heat, still soluble after storage at room temperature (24 hours to 5 days); for % solids dissolved in Bu-LGK with heat, no precipitation: dissolved at 50-80° C., still soluble after 24 hours at room temperature where stated
[2] = Three-component miscibility test (mixing in a vial at room temperature and shaking, visual clarity)
Excerpt: The term “miscible” and its variations (“miscibility”, “compatibility”, and the like) are used herein as a synonym for “soluble”, i.e., a mixture of the materials by themselves form a “true” solution, in which one material is molecularly dispersed in the other, or in which one material is dispersed as droplets which have a longest dimension of less than 200 nm, such that the mixture is optically clear. […] A fully miscible alkyl ketal ester is soluble in another material, such as water, at all proportions from 99:1 to 1:99. A partially miscible alkyl ketal ester is immiscible in another material in proportions from greater than 30 parts of the alkyl ketal ester in 70 parts or less of the other material and miscible in other combinations. A sparingly miscible alkyl ketal ester is immiscible in another material or miscible in another material to the extent of less than 10 parts in 90 parts of the other material. […] Unless stated otherwise, miscibility is assessed at 25° C. […] By “macroscopically uniform,” it is meant that the formulation is uniform when viewed at a length scale of at least 10 micrometers.
In these tests, clear mixtures as observed without magnification from a distance of, e.g., 0.3 meters are considered to be “miscible,” whereas cloudy or phase separated mixtures are considered to be “immiscible.” […]
Three-component mixtures of ethyl-LGK, ethanol, and avobenzone were prepared by mixing the materials at various proportions at room temperature in a vial and shaking. […]
Three-component mixtures of ethyl-LGK, water, and oxybenzone were prepared by mixing the materials at various proportions at room temperature in a vial and shaking. […]
Three-component mixtures of Et-LGK, water, and phenoxyethanol were prepared by mixing the materials at various proportions at room temperature in a vial and shaking.
Three-component mixtures of N,N-diethyl-m-toluamide (DEET), ethyl-LGK, and water were prepared by mixing the materials at various proportions at room temperature in a vial and shaking.

[3] = Miscibility of alkyl ketal esters with water and organic compounds; type: physicochemical; conditions: 25° C. unless stated otherwise
Experimental: Unless stated otherwise, miscibility is assessed at 25° C.

## O=C(OOC(=O)c1ccccc1)c1ccccc1 [Benzoyl peroxide]
[1]
  % solids dissolved in Et-LGK with heat, no precipitation: 5%
  solubility in many alkyl ketal esters: lower solubilities
[1]; insoluble
  % solids in Et-LGK that did not (completely) dissolve or precipitated at room temperature: 9.5%

## CCCCCCC(O)CO (stereo not shown) [Caprylyl glycol]
[1]
  % solids dissolved in Et-LGK at room temperature, no precipitation: 15% and 20.8%

## COC1=C(OC)C(=O)C(C/C=C(\C)CC/C=C(\C)CC/C=C(\C)CC/C=C(\C)CC/C=C(\C)CC/C=C(\C)CC/C=C(\C)CC/C=C(\C)CC/C=C(\C)CCC=C(C)C)=C(C)C1=O [Coenzyme Q10, Ubiquinone]
[1]; solvent Bu-LGK, insoluble, dispersion or partially dissolved
  % solids in Bu-LGK that did not (completely) dissolve: 5%
[1]; insoluble
  % solids in Et-LGK that did not (completely) dissolve or precipitated at room temperature: 3.7%

## CCN(CC)C(=O)c1cccc(C)c1 [DEET, N,N-diethyl-m-toluamide]
[2]
  solubility in ethanol and ethyl-LPK: soluble
[2]; 26.7 parts of DEET, 60.5 parts of ethyl-LGK, 12.8 parts of water, room temperature
  clarity of DEET / ethyl-LGK / water mixture: clear mixture
[1]; room temperature where stated
  50/50 mixture with Et-LGK: miscible
  50/50 mixture with Et-LPK: miscible

## COc1cc2c(cc1O)CCC(C)(C)O2 [Dimethylmethoxy Chromanol]
[1]; solvent Bu-LGK
  % solids dissolved in Bu-LGK at room temperature, no precipitation: 2.5%
[1]
  % solids dissolved in Et-LGK at room temperature, no precipitation: 2.5%
[1]; solvent Et-LPK
  % solids dissolved in Et-LPK at room temperature, no precipitation: 2.5%

## O=C(CO)[C@H](O)CO [Erythrulose]
[1]; room temperature
  mixture with Bu-LGK at a ratio of 10/90: separated into distinct phases
  mixture with Et-LPK at a ratio of 10/90: separated into distinct phases
[1]; room temperature, still soluble after 24 hours
  mixture with Et-LGK at a ratio of 10/90: clear uniform solution

## CCOC(=O)CC1(C)OCC(CO)O1 (stereo not shown) [Et-AcAcGK]
[2]; 50.0% ketal / 50.0% water, no oxybenzone
  Result (miscibility of ketal with water): Miscible
[3]
  miscible with water: in all proportions

## Oc1ccc(O)cc1 [Hydroquinone]
[1]
  % solids dissolved in Et-LGK with heat, no precipitation: 5%
[1]; solvent Et-LPK
  % solids dissolved in Et-LPK with heat, no precipitation: 10%

## COC(=O)CC1(C)OCC(CO)O1 (stereo not shown) [Me-AcAcGK]
[3]
  miscible with water: in all proportions

## Oc1ccc(C=Cc2cc(O)cc(O)c2)cc1 [Resveratrol]
[1]; solvent Bu-LGK
  % solids dissolved in Bu-LGK with heat, no precipitation: 0.5%
[1]
  % solids dissolved in Et-LGK at room temperature, no precipitation: 1%
  solubility in many alkyl ketal esters: lower solubilities
[1]; solvent Et-LPK
  % solids dissolved in Et-LPK with heat, no precipitation: 0.5%

## CC1=C(/C=C/C(C)=C/C=C/C(C)=C/C(=O)O)C(C)(C)CCC1 [Retinoic acid]
[1]; solvent Et-LPK, 80° C.
  % solids soluble in Et-LPK at 80° C.: 1.88%
[1]
  solubility in many alkyl ketal esters: lower solubilities

## COc1cc(CCC(=O)CC(=O)CCc2ccc(O)c(OC)c2)ccc1O [Tetrahydrocurcuminoids, tetrahydrodiferuloylmethane]
[1]; solvent Bu-LGK
  % solids dissolved in Bu-LGK with heat, no precipitation: 5%
[1]
  % solids dissolved in Et-LGK at room temperature, no precipitation: 20%
[1]; solvent Et-LPK
  % solids dissolved in Et-LPK with heat, no precipitation: 5%

## O=C(CCCCc1ccc2c(c1)OCO2)N1CCCCC1 [Tetrahydropiperine]
[1]; solvent Bu-LGK
  % solids dissolved in Bu-LGK at room temperature, no precipitation: 20%
[1]
  % solids dissolved in Et-LGK at room temperature, no precipitation: 20%
[1]; solvent Et-LPK
  % solids dissolved in Et-LPK at room temperature, no precipitation: 20%

## CCOC(=O)CCC1(C)OCCO1 [ethyl-LEK]
[3]
  miscible in water to the extent of: 5 parts per 95 parts of water by weight
